From the NIST ThermoML archive (doi:10.1007/s10765-016-2064-y)
± gives the expanded uncertainty stated by the source.

Experiment: molar heat capacity at constant pressure
Conditions: 101.33 kPa, Liquid, Large sample (1 g) DSC

Row | SMILES | molar heat capacity at constant pressure (298.15 K) [J/K/mol] | molar heat capacity at constant pressure (303.15 K) [J/K/mol] | molar heat capacity at constant pressure (308.15 K) [J/K/mol] | molar heat capacity at constant pressure (313.15 K) [J/K/mol] | molar heat capacity at constant pressure (318.15 K) [J/K/mol] | molar heat capacity at constant pressure (323.15 K) [J/K/mol] | molar heat capacity at constant pressure (328.15 K) [J/K/mol] | molar heat capacity at constant pressure (333.15 K) [J/K/mol] | molar heat capacity at constant pressure (338.15 K) [J/K/mol] | molar heat capacity at constant pressure (343.15 K) [J/K/mol] | molar heat capacity at constant pressure (348.15 K) [J/K/mol] | molar heat capacity at constant pressure (353.15 K) [J/K/mol] | molar heat capacity at constant pressure (358.15 K) [J/K/mol] | molar heat capacity at constant pressure (363.15 K) [J/K/mol] | molar heat capacity at constant pressure (368.15 K) [J/K/mol] | molar heat capacity at constant pressure (373.15 K) [J/K/mol] | molar heat capacity at constant pressure (378.15 K) [J/K/mol] | molar heat capacity at constant pressure (383.15 K) [J/K/mol] | molar heat capacity at constant pressure (388.15 K) [J/K/mol] | molar heat capacity at constant pressure (393.15 K) [J/K/mol] | further results
1 | CCCCCCCCCCBr [1-bromodecane] | 334.38 ± 14 | 336.85 ± 14 | 339.35 ± 14 | 341.85 ± 15 | 344.35 ± 15 | 346.85 ± 15 | 349.35 ± 15 | 351.85 ± 15 | 354.33 ± 15 | 356.83 ± 15 | 359.33 ± 15 | 361.82 ± 15 | 364.32 ± 15 | 366.82 ± 16 | 369.32 ± 16 | 371.8 ± 16 | 374.3 ± 16 | 376.8 ± 16 | 379.3 ± 16 | 381.8 ± 16 | molar heat capacity at constant pressure (398.15 K): 384.3 ± 16 J/K/mol; molar heat capacity at constant pressure (403.15 K): 386.8 ± 16 J/K/mol; molar heat capacity at constant pressure (408.15 K): 389.27 ± 17 J/K/mol; molar heat capacity at constant pressure (413.15 K): 391.77 ± 17 J/K/mol; molar heat capacity at constant pressure (418.15 K): 394.27 ± 17 J/K/mol; molar heat capacity at constant pressure (423.15 K): 396.77 ± 17 J/K/mol
2 | CCCCCCCCCCCCBr [1-bromododecane] | 399.29 ± 17 | 402.38 ± 17 | 405.47 ± 17 | 408.56 ± 17 | 411.65 ± 17 | 414.75 ± 18 | 417.84 ± 18 | 420.93 ± 18 | 424.02 ± 18 | 427.11 ± 18 | 430.2 ± 18 | 433.26 ± 18 | 436.35 ± 19 | 439.44 ± 19 | 442.53 ± 19 | 445.62 ± 19 | 448.72 ± 19 | 451.81 ± 19 | 454.9 ± 19 | 457.99 ± 19 | molar heat capacity at constant pressure (398.15 K): 461.08 ± 20 J/K/mol; molar heat capacity at constant pressure (403.15 K): 464.14 ± 20 J/K/mol; molar heat capacity at constant pressure (408.15 K): 467.23 ± 20 J/K/mol; molar heat capacity at constant pressure (413.15 K): 470.32 ± 20 J/K/mol; molar heat capacity at constant pressure (418.15 K): 473.41 ± 20 J/K/mol; molar heat capacity at constant pressure (423.15 K): 476.5 ± 20 J/K/mol
3 | CCCCCCCBr [1-bromoheptane] | 249.39 ± 11 | 251.24 ± 11 | 253.07 ± 11 | 254.91 ± 11 | 256.75 ± 11 | 258.58 ± 11 | 260.43 ± 11 | 262.27 ± 11 | 264.1 ± 11 | 265.94 ± 11 | 267.77 ± 11 | 269.61 ± 11 | 271.46 ± 12 | 273.29 ± 12 | 275.13 ± 12 | 276.98 ± 12 | 278.8 ± 12 | 280.65 ± 12 | 282.47 ± 12 | 284.32 ± 12 | molar heat capacity at constant pressure (398.15 K): 286.16 ± 12 J/K/mol; molar heat capacity at constant pressure (403.15 K): 287.99 ± 12 J/K/mol; molar heat capacity at constant pressure (408.15 K): 289.83 ± 12 J/K/mol; molar heat capacity at constant pressure (413.15 K): 291.68 ± 12 J/K/mol; molar heat capacity at constant pressure (418.15 K): 293.51 ± 12 J/K/mol; molar heat capacity at constant pressure (423.15 K): 295.35 ± 13 J/K/mol
4 | CCCCCCBr [1-bromohexane] | 219.66 ± 9.3 | 221.28 ± 9.4 | 222.9 ± 9.5 | 224.51 ± 9.5 | 226.13 ± 9.6 | 227.77 ± 9.7 | 229.38 ± 9.7 | 231 ± 9.8 | 232.62 ± 9.9 | 234.24 ± 9.9 | 235.87 ± 10 | 237.49 ± 10 | 239.11 ± 10 | 240.72 ± 10 | 242.34 ± 10 | 243.96 ± 10 | 245.59 ± 10 | 247.21 ± 10 | 248.83 ± 11 | 250.45 ± 11 | molar heat capacity at constant pressure (398.15 K): 252.06 ± 11 J/K/mol; molar heat capacity at constant pressure (403.15 K): 253.68 ± 11 J/K/mol; molar heat capacity at constant pressure (408.15 K): 255.32 ± 11 J/K/mol; molar heat capacity at constant pressure (413.15 K): 256.93 ± 11 J/K/mol; molar heat capacity at constant pressure (418.15 K): 258.55 ± 11 J/K/mol; molar heat capacity at constant pressure (423.15 K): 260.17 ± 11 J/K/mol
5 | CCCCCCCCCBr [1-bromononane] | 308.3 ± 13 | 310.56 ± 13 | 312.82 ± 13 | 315.1 ± 13 | 317.36 ± 13 | 319.61 ± 14 | 321.87 ± 14 | 324.15 ± 14 | 326.41 ± 14 | 328.67 ± 14 | 330.92 ± 14 | 333.2 ± 14 | 335.46 ± 14 | 337.72 ± 14 | 339.98 ± 14 | 342.26 ± 15 | 344.51 ± 15 | 346.77 ± 15 | 349.03 ± 15 | 351.31 ± 15 | molar heat capacity at constant pressure (398.15 K): 353.57 ± 15 J/K/mol; molar heat capacity at constant pressure (403.15 K): 355.82 ± 15 J/K/mol; molar heat capacity at constant pressure (408.15 K): 358.08 ± 15 J/K/mol; molar heat capacity at constant pressure (413.15 K): 360.36 ± 15 J/K/mol; molar heat capacity at constant pressure (418.15 K): 362.62 ± 15 J/K/mol; molar heat capacity at constant pressure (423.15 K): 364.88 ± 15 J/K/mol
